# Laboratory results reported in patent publication US20060234971A1 (priority 2005, published 2006).
# Where “and” joins values, the source holds several entries; their conditions need not be identical. Identical values can stand only once. Like-named read-outs stand apart in the source and are kept apart here. Peptide text beside a SMILES is read from it. * marks the point of attachment. Cbz = O=C(OCc1ccccc1)*; CH2F = FC*
# Assays:
# [1] = test system: calpain-mediated cleavage of PrP in SMB cells; type: cell-based, mouse
# [2] = test system: C2 production in SMB cells; assay: cells; type: cell-based, mouse; conditions: for IC50: read-out: concentration producing 50% inhibition of C2 accumulation (IC50)
# [3] = test system: prion replication in SMB cells; conditions: mouse, in vivo
# [4] = test system: C1 production in SMB cells; type: cell-based, mouse
# [5] = test system: PrP^Sc accumulation in ScN2a cells; conditions: cited from earlier work
compound,measurement,setting,value
CNc1ccc2oc(C[C@H]3O[C@@]4(CC[C@H]3C)O[C@H]([C@H](C)C(=O)c3ccc[nH]3)[C@H](C)C[C@H]4C)nc2c1C(=O)O [A23187],increase of C2,[1],3.5 fold
"CC(C)[C@H](NC(=O)OCc1ccccc1)C(=O)N[C@H](C=O)Cc1ccccc1 [MDL28170, Carbobenzoxy-valinyl-phenylalaninal] (Cbz-Val-Phe-aldehyde)",C2 by immunoblotting,[2],undetectable
same,reduction in C2,[2],63±19.7% and 75±6.8%
same,IC50,"[2]; Mus musculus, SMB",~4000 nM
same,prion titers in treated SMB cells,[3],reduced prion titers
same,cell toxicity / cell survival,SMB cells,cell toxicity is not triggered
same,C1 levels,[4],increased to levels similar to calpain inhibitor IV-treated SMB cells
"CCCC[C@@H](C=O)NC(=O)[C@H](CC(C)C)NC(=O)OCc1ccccc1 [calpeptin, Benzyloxycarbonylleucyl-norleucinal]",reduction in C2,[2],71±7.1%
same,cell toxicity / cell survival,SMB cells,cell toxicity is not triggered
C[C@H](CCC(=O)O)C[C@H](C)C[C@H](C)C(=O)/C=C(\O)[C@H](C)C[C@H](C)C/C=C/[C@@H](C)[C@@H](O)[C@@H](C)[C@@H](O)C[C@@H]1CC[C@@](C)([C@H]2CC[C@@](C)([C@@H](C)O)O2)O1 [ionomycin],increase in C2 levels compared to control,[1],~7 fold
CC(=O)N[C@@H](CC(C)C)C(=O)N[C@@H](CC(C)C)C(=O)N[C@H](C=O)CCCNC(=N)N [leupeptin],PrP^Sc accumulation in ScN2a cells,[5],affected PrP^Sc accumulation
Cbz-Leu-Leu-Tyr-CH2F [calpain inhibitor IV],effect on production of C2,[2],apparently complete elimination of C2
same,IC50,[2],450 nM
same,cell toxicity / cell survival,SMB cells,cell toxicity is not triggered
same,C1 levels,[4],C1 levels declined
same,C1 levels higher than control treated SMB cells,[4],~2 fold
Z-FG-NHO-BzOME [cathepsin inhibitor III],effect on production of C2,[2],unaffected
Z-FY(t-Bu)-DMK [cathepsin L inhibitor III],effect on production of C2,[2],unaffected
calpastatin,levels of C2 lower than control transfected cells,[2],64±15%
